Calls of active or inactive are those of the source.
Experiments:
Estrogen receptor beta [1] = target: T1, Estrogen receptor beta (Homo sapiens, UniProt Q92731);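 note: recombinant ER-beta bound to coactivator SRC1 peptide in presence of estradiol agonist; inhibitors block coactivator peptide binding and lower the FRET signal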
Estrogen receptor beta [2] = target: T1, Estrogen receptor beta; experiment: ERβ–SRC-3 coactivator interaction inhibitors, confirmation, orthogonal assay, biochemical, ELISA, streptavidin-HRP readout (AID 1060)
Bcl-2-like protein 10 = Bcl-2-like protein 10 (Homo sapiens, UniProt Q9HD36); experiment: displacers of TR3 peptide from Bcl-B, primary screen, selectivity assay for Bfl-1 inhibitor project, biochemical, fluorescence polarization, FITC-TR3 peptide (AID 748);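 note: fluorescence polarization from a fluorescein-labelled TR3 peptide binding purified Bcl-B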
Sequence of Bcl-2-like protein 10 (Q9HD36 whole entry): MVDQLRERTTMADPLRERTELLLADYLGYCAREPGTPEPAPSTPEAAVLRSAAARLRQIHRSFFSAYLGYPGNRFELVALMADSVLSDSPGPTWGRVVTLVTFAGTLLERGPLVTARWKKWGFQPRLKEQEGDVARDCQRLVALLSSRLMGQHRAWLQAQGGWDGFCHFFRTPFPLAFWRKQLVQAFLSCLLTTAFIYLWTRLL

[3] = target: Eukaryotic translation initiation factor 4H (Homo sapiens, UniProt Q15056); experiment: human eIF4H binding inhibitors, primary screen, translation initiation inhibitor project, biochemical, uHTS, fluorescence polarization (AID 2012)
[4] = target: Polyadenylate-binding protein 1 (Homo sapiens, UniProt P11940); experiment: PABP poly(A) RNA binding inhibitors, primary screen, biochemical, fluorescence polarization, uHTS (AID 2014)
Sequence of Polyadenylate-binding protein 1 (P11940 whole entry): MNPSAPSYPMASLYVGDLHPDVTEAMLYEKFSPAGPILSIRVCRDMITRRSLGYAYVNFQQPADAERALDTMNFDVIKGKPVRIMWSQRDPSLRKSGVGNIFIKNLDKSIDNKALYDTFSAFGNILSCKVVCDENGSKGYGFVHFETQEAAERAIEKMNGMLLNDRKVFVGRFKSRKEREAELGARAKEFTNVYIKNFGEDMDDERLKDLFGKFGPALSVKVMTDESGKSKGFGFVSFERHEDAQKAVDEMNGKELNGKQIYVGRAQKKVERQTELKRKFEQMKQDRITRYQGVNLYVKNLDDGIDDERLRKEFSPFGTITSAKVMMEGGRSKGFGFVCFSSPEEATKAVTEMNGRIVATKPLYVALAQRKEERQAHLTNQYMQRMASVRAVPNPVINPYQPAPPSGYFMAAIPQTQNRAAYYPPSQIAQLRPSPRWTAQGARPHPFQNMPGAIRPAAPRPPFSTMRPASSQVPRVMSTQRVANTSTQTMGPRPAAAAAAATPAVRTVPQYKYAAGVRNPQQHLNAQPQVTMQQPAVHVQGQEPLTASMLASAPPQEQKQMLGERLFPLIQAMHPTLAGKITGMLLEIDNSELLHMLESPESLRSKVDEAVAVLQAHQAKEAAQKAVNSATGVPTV

HeLa = experiment: HeLa cell cytotoxicity, dose response, cytotoxicity control, 24 h, cherry-picked samples (AID 504726); type: functional, cell-based; details: Homo sapiens;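 note: potency for cytotoxicity as loss of luminescence signal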
Aspartyl aminopeptidase = Aspartyl aminopeptidase (Plasmodium falciparum 3D7, UniProt Q8I2J3)
Sequence of Aspartyl aminopeptidase (Q8I2J3 whole entry, the tested form may be a part): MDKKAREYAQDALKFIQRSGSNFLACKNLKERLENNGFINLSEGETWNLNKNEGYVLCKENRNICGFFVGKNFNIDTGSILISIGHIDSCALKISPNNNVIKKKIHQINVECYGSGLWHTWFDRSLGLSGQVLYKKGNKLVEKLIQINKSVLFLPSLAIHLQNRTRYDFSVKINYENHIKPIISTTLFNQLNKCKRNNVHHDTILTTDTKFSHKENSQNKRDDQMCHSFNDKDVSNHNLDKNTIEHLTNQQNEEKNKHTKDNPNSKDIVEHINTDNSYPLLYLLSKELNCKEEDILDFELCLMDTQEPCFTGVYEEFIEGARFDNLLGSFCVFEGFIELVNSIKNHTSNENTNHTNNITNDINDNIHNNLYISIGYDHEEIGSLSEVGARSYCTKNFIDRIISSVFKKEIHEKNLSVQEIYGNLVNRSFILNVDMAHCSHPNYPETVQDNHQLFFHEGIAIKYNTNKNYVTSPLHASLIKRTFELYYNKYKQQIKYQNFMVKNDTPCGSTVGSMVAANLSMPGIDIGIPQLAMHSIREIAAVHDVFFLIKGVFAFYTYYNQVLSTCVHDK

[5] = target: T2, RNA-binding protein pos-1 (Caenorhabditis elegans, UniProt G5EF15); experiment: inhibitors of POS-1/mex-3 RNA binding, dose response, biochemical, fluorescence polarization (AID 1964);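 note: purified POS-1 fused to maltose binding protein made in E. coli; potency of compounds blocking POS-1 binding to fluorescent RNA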
T2 sequence (G5EF15 whole entry): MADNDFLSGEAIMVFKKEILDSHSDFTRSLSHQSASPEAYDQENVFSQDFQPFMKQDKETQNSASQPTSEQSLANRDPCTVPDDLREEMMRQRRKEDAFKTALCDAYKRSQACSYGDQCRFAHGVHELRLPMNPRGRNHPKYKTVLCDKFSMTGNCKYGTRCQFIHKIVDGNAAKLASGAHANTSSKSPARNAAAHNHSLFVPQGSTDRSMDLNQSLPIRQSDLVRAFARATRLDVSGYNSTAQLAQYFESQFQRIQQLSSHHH

Procathepsin L = Procathepsin L (Homo sapiens, UniProt P07711)
[6] = target: T3, Zinc finger protein mex-5 (Caenorhabditis elegans, UniProt Q9XUB2); experiment: MEX-5/TCR-2 RNA interaction inhibitors, dose response, biochemical, C. elegans, fluorescence polarization (AID 1960)
T3 sequence (Q9XUB2 whole entry): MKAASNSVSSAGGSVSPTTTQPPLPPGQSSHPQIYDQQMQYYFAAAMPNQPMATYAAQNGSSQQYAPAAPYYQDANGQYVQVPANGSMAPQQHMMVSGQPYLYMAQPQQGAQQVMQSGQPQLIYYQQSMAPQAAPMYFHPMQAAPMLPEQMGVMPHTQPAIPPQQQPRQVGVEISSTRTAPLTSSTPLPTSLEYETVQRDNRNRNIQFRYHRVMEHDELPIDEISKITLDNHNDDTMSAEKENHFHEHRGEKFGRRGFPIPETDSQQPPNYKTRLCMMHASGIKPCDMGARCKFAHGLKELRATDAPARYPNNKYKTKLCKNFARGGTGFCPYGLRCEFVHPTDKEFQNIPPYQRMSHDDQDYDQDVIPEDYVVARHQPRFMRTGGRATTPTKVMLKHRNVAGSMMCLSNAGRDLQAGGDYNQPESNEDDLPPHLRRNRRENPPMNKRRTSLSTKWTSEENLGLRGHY

[7] = target: 5-hydroxytryptamine receptor 2A (Mus musculus, UniProt P35363); type: functional, cell-based;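 note: CHO-K1 cells with tagged receptor and beta-arrestin; agonist potency measured as compound-induced activation of the receptor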
Sequence of 5-hydroxytryptamine receptor 2A (P35363 whole entry): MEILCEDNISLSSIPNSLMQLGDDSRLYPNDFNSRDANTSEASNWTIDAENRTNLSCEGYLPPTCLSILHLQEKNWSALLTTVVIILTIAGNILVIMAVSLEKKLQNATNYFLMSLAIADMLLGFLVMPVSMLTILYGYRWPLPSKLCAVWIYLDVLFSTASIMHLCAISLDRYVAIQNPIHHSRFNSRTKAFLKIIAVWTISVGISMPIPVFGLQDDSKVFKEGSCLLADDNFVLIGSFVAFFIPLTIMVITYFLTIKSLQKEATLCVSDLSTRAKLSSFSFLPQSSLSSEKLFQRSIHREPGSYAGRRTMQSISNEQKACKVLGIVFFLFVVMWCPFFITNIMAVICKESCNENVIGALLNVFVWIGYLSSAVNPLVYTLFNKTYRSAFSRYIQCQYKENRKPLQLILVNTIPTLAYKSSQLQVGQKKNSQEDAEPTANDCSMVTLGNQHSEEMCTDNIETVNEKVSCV

cells [8] = type: functional, cell-based
[9] = target: T4, DNA repair and recombination protein RAD54-like (Homo sapiens, UniProt Q92698); experiment: inhibitors of human RAD54 branch migration, confirmation, biochemical, fluorescence, cherry-picked samples, dose series (AID 651657); type: functional
T4 sequence (Q92698 whole entry): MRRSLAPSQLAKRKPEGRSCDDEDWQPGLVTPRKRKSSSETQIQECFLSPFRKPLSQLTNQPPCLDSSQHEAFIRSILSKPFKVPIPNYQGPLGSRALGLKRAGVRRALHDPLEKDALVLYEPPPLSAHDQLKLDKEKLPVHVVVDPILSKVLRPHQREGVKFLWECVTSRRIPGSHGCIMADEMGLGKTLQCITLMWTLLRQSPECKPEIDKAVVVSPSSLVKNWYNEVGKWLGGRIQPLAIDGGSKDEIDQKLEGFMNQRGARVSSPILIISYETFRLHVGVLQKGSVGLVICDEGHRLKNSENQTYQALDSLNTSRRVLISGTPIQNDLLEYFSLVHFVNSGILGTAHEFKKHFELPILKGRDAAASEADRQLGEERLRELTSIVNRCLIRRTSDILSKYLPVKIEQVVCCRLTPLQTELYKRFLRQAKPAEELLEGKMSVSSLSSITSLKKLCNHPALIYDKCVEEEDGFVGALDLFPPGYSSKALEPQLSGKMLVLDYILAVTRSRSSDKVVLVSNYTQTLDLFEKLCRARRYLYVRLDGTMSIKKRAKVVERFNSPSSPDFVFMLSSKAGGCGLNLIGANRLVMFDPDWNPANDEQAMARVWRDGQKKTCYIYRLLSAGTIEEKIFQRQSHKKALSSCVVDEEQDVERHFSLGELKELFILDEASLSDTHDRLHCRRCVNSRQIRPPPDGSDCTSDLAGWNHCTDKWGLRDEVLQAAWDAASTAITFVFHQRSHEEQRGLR

[10] = target: FAD-linked sulfhydryl oxidase ALR (Homo sapiens, UniProt P55789); experiment: inhibitors of human ALR sulfhydryl oxidase, dose response, biochemical, H2O2 detection, luminescence, cherry-pick (AID 493248)
Large T antigen = Large T antigen (Simian virus 40, UniProt P03070); type: functional, Betapolyomavirus macacae;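 note: Confirmatory-stage PubChem screen for compounds that inhibit SV40 T antigen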
Sequence of Large T antigen (P03070 whole entry): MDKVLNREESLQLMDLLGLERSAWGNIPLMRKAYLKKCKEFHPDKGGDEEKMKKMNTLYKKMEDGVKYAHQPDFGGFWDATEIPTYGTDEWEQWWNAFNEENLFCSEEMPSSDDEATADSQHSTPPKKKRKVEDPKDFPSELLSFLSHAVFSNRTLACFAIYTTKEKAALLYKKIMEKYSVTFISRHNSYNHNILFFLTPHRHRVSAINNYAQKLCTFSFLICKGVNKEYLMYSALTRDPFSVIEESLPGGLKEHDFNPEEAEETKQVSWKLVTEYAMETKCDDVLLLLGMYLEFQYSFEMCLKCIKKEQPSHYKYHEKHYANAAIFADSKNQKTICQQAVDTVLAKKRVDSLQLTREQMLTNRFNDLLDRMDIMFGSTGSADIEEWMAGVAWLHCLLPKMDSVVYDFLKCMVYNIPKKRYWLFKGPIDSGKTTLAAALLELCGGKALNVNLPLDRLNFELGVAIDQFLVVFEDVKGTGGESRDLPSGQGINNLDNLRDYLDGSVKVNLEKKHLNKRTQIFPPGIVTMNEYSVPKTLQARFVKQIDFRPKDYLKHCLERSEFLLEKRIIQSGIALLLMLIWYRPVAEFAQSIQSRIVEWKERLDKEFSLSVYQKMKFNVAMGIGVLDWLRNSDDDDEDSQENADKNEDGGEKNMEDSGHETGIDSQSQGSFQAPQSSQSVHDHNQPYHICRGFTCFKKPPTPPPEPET

Mu-type opioid receptor = Mu-type opioid receptor (Homo sapiens, UniProt P35372); type: functional, cell-based;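 note: U2OS cells with beta-arrestin recruitment to OPRM1 by beta-gal complementation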
Sequence of Mu-type opioid receptor (P35372 whole entry): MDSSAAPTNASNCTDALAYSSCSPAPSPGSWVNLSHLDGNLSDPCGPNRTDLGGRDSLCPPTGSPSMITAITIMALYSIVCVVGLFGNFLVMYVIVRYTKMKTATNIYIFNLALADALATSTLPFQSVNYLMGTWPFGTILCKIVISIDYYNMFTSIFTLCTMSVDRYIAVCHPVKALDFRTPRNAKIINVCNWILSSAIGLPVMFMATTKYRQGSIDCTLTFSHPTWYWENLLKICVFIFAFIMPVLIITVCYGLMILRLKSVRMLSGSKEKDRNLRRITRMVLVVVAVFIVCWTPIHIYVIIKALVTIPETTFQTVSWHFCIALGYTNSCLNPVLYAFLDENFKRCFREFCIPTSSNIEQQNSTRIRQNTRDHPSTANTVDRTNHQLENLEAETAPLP

cells [11] = type: functional, cell-based; remark: listed apart in the source
INS1 = experiment: beta cell apoptosis inhibitors, cytokine rescue, dose response, luminescence, retest (AID 449756); type: functional, cell-based; details: Rattus norvegicus;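 note: cell death triggered by IL-1 beta plus TNF-alpha plus IFN-gamma mixture; protective hits raise ATP signal compared with cytokine alone wells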
[12] = MDA-MB-231 cell growth inhibition, dose response, cytotoxicity control for RAD54 inhibitor project, CellTiter-Glo luminescence, cherry-pick (AID 651692); type: functional, cell-based
[13] = inhibitors of intracellular T. cruzi replication, confirmation, NIH3T3 host cells, beta-gal luminescence (AID 2044); type: functional, cell-based;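 note: intracellular parasites grown in NIH/3T3 mouse fibroblasts as host cells; luminescent beta-galactosidase reporter signal from transgenic T. cruzi replicating inside host cells; inhibitors lower the luminescence signal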
[14] = HEK293T cytotoxicity, dose response, cytotoxicity control for miR-122 modulator project, cell-based, activator set, cherry-pick (AID 720690); type: functional;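 note: HEK293T human cells scored for general mammalian cytotoxicity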
[15] = cytotoxicity toward NIH3T3 fibroblasts, dose response, counter-screen, cell-based, ATP luminescence, mouse fibroblasts (AID 2010); type: functional;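 note: cells exposed to compound for about 90 hours before reading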
Melanocortin receptor 4 = Melanocortin receptor 4 (Homo sapiens, UniProt P32245); type: functional, cell-based;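 note: Cell-based assay with luminescence read-out, confirmatory dose-response testing for agonist activity of biased ligands at MC4R; human U2OS cells with tagged receptor and beta-arrestin; potency of agonists that increase receptor coupling to beta-arrestin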
Sequence of Melanocortin receptor 4 (P32245 whole entry): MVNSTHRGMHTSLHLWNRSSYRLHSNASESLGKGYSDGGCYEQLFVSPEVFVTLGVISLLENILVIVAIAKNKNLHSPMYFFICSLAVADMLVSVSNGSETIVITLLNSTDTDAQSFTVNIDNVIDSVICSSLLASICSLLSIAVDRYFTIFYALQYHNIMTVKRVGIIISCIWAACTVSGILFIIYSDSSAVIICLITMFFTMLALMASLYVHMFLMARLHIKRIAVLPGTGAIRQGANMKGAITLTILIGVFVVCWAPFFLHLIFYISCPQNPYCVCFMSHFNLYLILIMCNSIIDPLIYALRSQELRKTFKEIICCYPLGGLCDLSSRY

[16] = target: Neurotensin receptor type 1 (Homo sapiens, UniProt P30989); type: functional;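 note: Image-based confirmatory dose-response assay measuring agonist activity at NTR1; NTR1-expressing U2OS osteosarcoma cells imaged for beta-arrestin GFP spot formation; agonist potency where compounds increase beta-arrestin recruitment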
Sequence of Neurotensin receptor type 1 (P30989 whole entry): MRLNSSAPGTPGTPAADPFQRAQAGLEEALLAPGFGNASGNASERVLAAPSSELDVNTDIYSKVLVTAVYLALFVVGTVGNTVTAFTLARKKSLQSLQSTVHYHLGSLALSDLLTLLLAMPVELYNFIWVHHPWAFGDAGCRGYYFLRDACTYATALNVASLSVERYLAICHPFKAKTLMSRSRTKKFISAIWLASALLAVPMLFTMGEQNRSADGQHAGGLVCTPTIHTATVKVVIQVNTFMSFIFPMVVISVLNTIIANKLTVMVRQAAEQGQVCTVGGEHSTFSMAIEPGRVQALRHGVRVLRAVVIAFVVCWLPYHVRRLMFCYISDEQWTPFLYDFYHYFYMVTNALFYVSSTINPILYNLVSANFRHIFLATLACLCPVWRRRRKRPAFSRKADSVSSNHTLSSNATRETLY

[17] = target: T5, Dual specificity protein phosphatase 6 (Rattus norvegicus, UniProt Q64346)
T5 sequence (Q64346 whole entry): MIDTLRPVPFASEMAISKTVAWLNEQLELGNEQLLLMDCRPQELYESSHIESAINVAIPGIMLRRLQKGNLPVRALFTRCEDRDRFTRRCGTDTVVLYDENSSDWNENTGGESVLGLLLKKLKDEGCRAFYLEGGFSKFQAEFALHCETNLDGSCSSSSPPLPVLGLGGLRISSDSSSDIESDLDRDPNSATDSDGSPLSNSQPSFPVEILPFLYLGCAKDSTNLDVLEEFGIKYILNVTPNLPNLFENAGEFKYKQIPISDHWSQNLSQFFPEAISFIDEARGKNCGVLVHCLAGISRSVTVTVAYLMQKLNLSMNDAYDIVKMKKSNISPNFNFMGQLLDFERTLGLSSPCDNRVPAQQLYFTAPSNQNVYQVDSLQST

[18] = target: T5, Dual specificity protein phosphatase 6; type: functional
[19] = target: T6, Dual specificity protein phosphatase 3 (Homo sapiens, UniProt P51452); experiment: MOA VHR1 Fluorescent secondary assay for identification of redox-state modulating compounds. [Related pubchem assays (depositor defined):AID1654, AID1661, AID1878, AID1957]
T6 sequence (P51452 whole entry): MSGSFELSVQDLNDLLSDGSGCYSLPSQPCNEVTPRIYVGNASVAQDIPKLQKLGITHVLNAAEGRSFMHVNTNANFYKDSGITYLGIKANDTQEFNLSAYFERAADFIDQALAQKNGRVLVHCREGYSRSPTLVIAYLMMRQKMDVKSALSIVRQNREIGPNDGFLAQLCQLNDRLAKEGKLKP

[20] = target: T6, Dual specificity protein phosphatase 3; experiment: SAR VHR1 Fluorescent Assay for In Vitro dose response studies. [Related pubchem assays (depositor defined):AID1654, AID1661, AID1878, AID1992, AID2004, AID2070, AID2085]; type: functional
[21] = target: T7, Tyrosine-protein phosphatase non-receptor type 7 (Homo sapiens, UniProt P35236); type: functional
T7 sequence (P35236 whole entry): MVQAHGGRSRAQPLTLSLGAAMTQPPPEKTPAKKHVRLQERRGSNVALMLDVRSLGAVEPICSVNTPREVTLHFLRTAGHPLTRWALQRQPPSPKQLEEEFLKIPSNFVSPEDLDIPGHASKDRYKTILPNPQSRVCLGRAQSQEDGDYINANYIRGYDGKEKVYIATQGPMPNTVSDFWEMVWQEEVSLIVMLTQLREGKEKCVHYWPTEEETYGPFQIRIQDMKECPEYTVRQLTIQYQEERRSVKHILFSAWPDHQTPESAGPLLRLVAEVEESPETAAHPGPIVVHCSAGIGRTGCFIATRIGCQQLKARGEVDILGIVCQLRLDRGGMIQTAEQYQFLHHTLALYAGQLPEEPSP

[22] = target: T7, Tyrosine-protein phosphatase non-receptor type 7; experiment: redox-dependent HePTP inhibition, mechanism study, biochemical, fluorescence (AID 2068); type: functional
[23] = target: Glyceraldehyde-3-phosphate dehydrogenase (Homo sapiens, UniProt P04406)
Streptococcus = experiment: Group A Streptococcus viability loss, dose response, counter-screen for streptokinase expression inhibitor project, luminescence, BacTiterGlo (AID 1915); type: functional, organism-based;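 note: potency for reduction of bacterial viability or growth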
[24] = growth suppression of beta-catenin-knockout colon cells, dose response, cell-based, HCT116, human colon tumor (AID 1045); type: functional;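 note: HCT116 colon tumor cells with beta catenin knocked out; cells exposed to compound for 60 hours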
[25] = test system: Streptococcus sp. 'group A'; experiment: growth inhibition of control SK(-) GAS strain, dose response, counter-screen for streptokinase expression inhibitor project, luminescence, kanamycin, BacTiterGlo, confirmation (AID 1900); type: functional, organism-based
[26] = target: Scavenger receptor class B member 1 (Mus musculus, UniProt Q61009); experiment: inhibitors of SR-BI mediated HDL lipid uptake, dose response, ldlA[mSR-BI] cells, fluorescence, cherry pick (AID 493194); type: functional, cell-based;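 note: cellular uptake of fluorescent DiI-labeled HDL measured as cell fluorescence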
Sequence of Scavenger receptor class B member 1 (Q61009 whole entry): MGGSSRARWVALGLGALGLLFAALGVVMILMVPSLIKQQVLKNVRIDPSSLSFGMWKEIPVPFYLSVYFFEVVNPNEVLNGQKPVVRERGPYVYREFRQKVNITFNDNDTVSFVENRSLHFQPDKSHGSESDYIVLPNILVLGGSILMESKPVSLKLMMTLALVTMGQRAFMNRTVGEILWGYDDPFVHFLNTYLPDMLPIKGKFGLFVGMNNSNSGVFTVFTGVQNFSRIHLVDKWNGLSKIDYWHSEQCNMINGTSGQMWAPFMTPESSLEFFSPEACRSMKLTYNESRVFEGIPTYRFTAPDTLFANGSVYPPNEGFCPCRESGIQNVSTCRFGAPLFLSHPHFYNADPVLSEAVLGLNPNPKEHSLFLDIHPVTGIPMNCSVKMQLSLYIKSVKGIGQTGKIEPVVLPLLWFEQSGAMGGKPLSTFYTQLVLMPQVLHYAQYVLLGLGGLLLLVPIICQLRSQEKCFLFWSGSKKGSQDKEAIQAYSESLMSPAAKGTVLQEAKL

Streptokinase A = target: T8, Streptokinase A (Streptococcus pyogenes serotype M1, UniProt P10520); experiment: S. pyogenes streptokinase expression inhibitors, potency, dose response, plasminogen activation absorbance, OD405 (AID 1914); type: functional, Streptococcus pyogenes M1 GAS;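 note: secreted streptokinase activity via plasminogen activation per viability signal from cell pellet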
T8 sequence (P10520 whole entry): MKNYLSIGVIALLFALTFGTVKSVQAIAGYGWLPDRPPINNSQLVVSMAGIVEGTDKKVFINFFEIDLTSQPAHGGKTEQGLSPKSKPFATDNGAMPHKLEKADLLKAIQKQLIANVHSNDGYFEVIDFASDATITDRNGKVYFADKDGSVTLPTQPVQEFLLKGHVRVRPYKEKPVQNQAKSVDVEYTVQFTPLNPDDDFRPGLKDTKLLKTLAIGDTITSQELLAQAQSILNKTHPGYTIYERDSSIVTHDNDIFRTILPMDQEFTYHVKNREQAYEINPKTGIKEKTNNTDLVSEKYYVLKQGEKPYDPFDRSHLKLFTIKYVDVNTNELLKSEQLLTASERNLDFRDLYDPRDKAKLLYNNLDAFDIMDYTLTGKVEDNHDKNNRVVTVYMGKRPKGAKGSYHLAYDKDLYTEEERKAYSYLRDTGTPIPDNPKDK

[27] = growth suppression of PTEN-null colon cells, dose response, cell-based, HCT116 PTEN knockout (AID 1047); type: functional;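 note: HCT116 colon tumor cells with PTEN knocked out; cells exposed to compound for 60 hours before readout; potency for loss of cell viability measured by luminescence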
[28] = target: Melanin-concentrating hormone receptor 1 (Homo sapiens, UniProt Q99705); experiment: Fluorescence-based counterscreen for antagonists of the G-protein coupled receptor 7 (GPR7): cell-based high throughput dose response assay to identify antagonists of the melanin-concentrating hormone receptor 1 (MCHR1).; type: functional
[29] = target: Neuropeptides B/W receptor type 1 (Homo sapiens, UniProt P48145); experiment: Fluorescence-based dose response cell-based high throughput screening assay to identify antagonists of the G-protein coupled receptor 7 (GPR7). [Related pubchem assays: 1952 (Screening assay (GPR7 antagonists).), 1880 (Summary AID.)]; type: functional

T1 sequence (Q92731 whole entry): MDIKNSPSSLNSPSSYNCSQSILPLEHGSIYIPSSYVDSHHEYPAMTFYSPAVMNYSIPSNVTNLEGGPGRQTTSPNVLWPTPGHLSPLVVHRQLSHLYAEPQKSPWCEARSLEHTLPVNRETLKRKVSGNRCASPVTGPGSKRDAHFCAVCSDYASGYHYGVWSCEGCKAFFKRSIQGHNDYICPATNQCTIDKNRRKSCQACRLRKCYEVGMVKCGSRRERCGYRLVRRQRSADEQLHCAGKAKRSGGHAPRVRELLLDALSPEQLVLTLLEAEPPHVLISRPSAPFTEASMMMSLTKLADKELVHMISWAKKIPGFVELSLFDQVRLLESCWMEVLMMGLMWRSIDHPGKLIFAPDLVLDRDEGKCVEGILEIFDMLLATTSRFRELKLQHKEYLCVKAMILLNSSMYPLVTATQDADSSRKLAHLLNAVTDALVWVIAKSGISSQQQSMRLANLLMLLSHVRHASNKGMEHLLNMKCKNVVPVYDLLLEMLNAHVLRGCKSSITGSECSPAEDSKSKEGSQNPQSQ

CCOc1ccc2[nH]c(=O)c(=O)[nH]c2c1
IC50 (Estrogen receptor beta [1]): > 50 µM (not active) | IC50 (Estrogen receptor beta [2]): 12.2 µM (not active) | IC50 (Bcl-2-like protein 10): > 50 µM (inactive)

CCc1ccc(NS(=O)(=O)c2ccc(C)c(C(=O)N3CCOCC3)c2)cc1
IC50 [3]: > 100 µM (inactive) | IC50 [4]: 6.21 µM (active)

COC(=O)c1ccc(Oc2nc(Nc3ccc(F)cc3)nc(N3CCCC3)n2)cc1
AC50 (HeLa): 289 µM (active)

Oc1ccc(CCNc2c3ccccc3nc3ccccc23)cc1O
IC50 (Aspartyl aminopeptidase): 2.49 µM (active) | EC50 [5]: > 300 µM (not active) | IC50 (Procathepsin L): > 59.6 µM (not active) | EC50 [6]: 10.1 µM (active) | EC50 [7]: 76.1 µM (inactive) | EC50 (cells [8]): > 350 µM (not active) | AC50 [9]: 1.87 µM (active) | AC50 [10]: 2.76 µM (active) | IC50 (Large T antigen): 8.41 µM (active) | EC50 (Mu-type opioid receptor): 92.5 µM (inactive) | EC50 (cells [11]): > 350 µM (not active)

Cc1cc(C)cc(OCC(O)CN2CCC(CN3C(=O)c4cccc5cccc(c45)C3=O)CC2)c1 (stereo not given)
AC50 (INS1): 5.59 µM (active) | AC50 [12]: 23.6 µM (active) | EC50 [13]: 1.82 µM (active) | AC50 [9]: 7.63 µM (active) | AC50 [14]: 15.9 µM (active) | EC50 [15]: 9.92 µM (active) | EC50 (Melanocortin receptor 4): > 89.2 µM (inactive) | EC50 [16]: 18.6 µM (active)

O=c1/c(=C/c2ccc(-c3cc(Cl)cc(Cl)c3)o2)sc2nc3cc(Br)cnc3n12
IC50 [17]: > 100 µM (inactive) | IC50 [18]: > 100 µM (inactive) | IC50 [19]: 2.23 µM (active) | IC50 [20]: 8.81 µM (active) | IC50 [21]: > 100 µM (not active) | IC50 [22]: 1.15 µM (active) | IC50 [23]: > 100 µM (not active)

COc1ccc(-c2nc(-c3ccc4c(c3)OCO4)[nH]c2-c2ccc(OC)cc2)cc1
EC50 (Streptococcus): > 150 µM (not active) | EC50 [24]: 19.2 µM (active) | EC50 [25]: 2.62 µM (active) | AC50 [26]: 18.1 µM (active) | EC50 (Streptokinase A): 2.07 µM (active) | EC50 [27]: 16.7 µM (active)

Clc1ccc(CN(Cc2ccc(Cl)cc2)c2nnn[nH]2)cc1
IC50 [28]: > 14.6 µM (not active) | IC50 [29]: > 14.6 µM (not active)

From ChEMBL document CHEMBL1201862, “PubChem BioAssay data set” (2004)
